In general, EC50 refers to the midpoint of the concentration-response curve. Lower therefore signals greater potency.

Structures are written as SMILES. Bounds are passed on as bounds.

The subject of one data set is HIV-1. Description: Inhibition of early phase virus replication (MAGI cell β-gal indicator assay). It counts as cell-based. The following applies: Human immunodeficiency virus 1; MAGI cells, MOI of 0.00125. As for the experimental part:
(§1) Virology studies are preformed to assess the antiviral potency substituted heterobetulinic acids. The antiviral effect of these compounds is evaluated by parallel studies of inhibition of viral replication and cell viability. Viruses and cells for use in these assays may be obtained from the NIH AIDS Reagent Program.
The effect of compounds on the early phase virus replication, from virus particle attachment through early gene, Tat expression, are evaluated using a CD4-positive LTR-β-galatosidase-expressing HeLa (MAGI) cell indicator line. This assay, described previously to assess the level of β-gal expression, has been modified and adopted in our laboratory. β-gal levels are quantified by photon detection assay, with virus infected cells that are not treated with a capsid formation inhibitor giving the highest level of expression. […]
MAGI Cells are trypsinization and counted using the trepan blue exclusion method, and resuspended at a pre-determined concentration (usually 2×10^4 cells/well) in 10% FBS complete RPMI 1640. […]
The viruses are diluted to a pre-determined MOI/well, typically 0.01 to 1, in Pre-MAGI media plus 20 μg/well DEAE-dextran. […]
Plates are incubated at room temperature (25° C.) for 60-90 minutes or until constant light emission is reached. Plate(s) are read in a luminometer and measured for 0.1-1.0 sec/well.

For another data set, the system named is mock-infected cells. Briefly: Assessment of cytotoxicity (cell viability in parallel). It is filed as cell-based. As for the experimental part:
as §1
Plates are incubated at 37° C. in a humidified CO2 incubator for six days. Following incubation of the HIV-1 infected cells with the compound cell viability is assessed using a calorimetric assay of metabolic activity, such as an XTT, MTT or WST-1 assay, or a BrdU incorporation assay. Cytotoxicity of the compound is determined in parallel by measurement of the viability of mock-infected cells treated with the compound. Uninfected cells without compounds are used for a 100% viability control. Infected cells to which no compound is added provide a value for 100% of cell death due to viral infection. The number of surviving or viable cells is quantified by a tetrazolium-based colorimetric method using the CellTiter96 reagent (Promega, Madison, Wis.).

For `CC1=CC[C@]2(C(=O)O)CC[C@]3(C)[C@H](CC[C@@H]4[C@@]5(C)CCC(OC(=O)CC(C)(C)C(=O)O)C(C)(C)[C@@H]5CC[C@]43C)[C@H]2[C@@H]1C` (stereo partly shown) [Compound 11], the EC50 in the data set with HIV-1 was less than 2000 nM. Further, the cytotoxicity entry with mock-infected cells is reported as “Neither compound was cytotoxic”.
As for `CC1=CC[C@]2(CO)CC[C@]3(C)[C@H](CC[C@@H]4[C@@]5(C)CC[C@H](OC(=O)CC(C)(C)C(=O)O)C(C)(C)[C@@H]5CC[C@]43C)[C@H]2[C@@H]1C` [Compound 12], in the data set on HIV-1, the EC50 is less than 100 nM. In addition, the cytotoxicity entry in the data set with mock-infected cells is on record as “Neither compound was cytotoxic”.
